Test results as given in paper PMC10952572, “Improved PIEZO1 agonism through 4‐benzoic acid modification of Yoda1” (British Journal of Pharmacology, 2023).
Entries after “also recorded” stand apart in the source; their conditions may differ.

How the values were obtained:
[1] = target: T1, Human recombinant prostanoid EP4 receptors (Homo sapiens, UniProt P35408); assay: Eurofins Hit Profiling Screen PP70: prostanoid EP4 receptor binding; conditions: 5 μM
T1 construct: host or cells: Chem-1 cells
T1 sequence (P35408 whole entry): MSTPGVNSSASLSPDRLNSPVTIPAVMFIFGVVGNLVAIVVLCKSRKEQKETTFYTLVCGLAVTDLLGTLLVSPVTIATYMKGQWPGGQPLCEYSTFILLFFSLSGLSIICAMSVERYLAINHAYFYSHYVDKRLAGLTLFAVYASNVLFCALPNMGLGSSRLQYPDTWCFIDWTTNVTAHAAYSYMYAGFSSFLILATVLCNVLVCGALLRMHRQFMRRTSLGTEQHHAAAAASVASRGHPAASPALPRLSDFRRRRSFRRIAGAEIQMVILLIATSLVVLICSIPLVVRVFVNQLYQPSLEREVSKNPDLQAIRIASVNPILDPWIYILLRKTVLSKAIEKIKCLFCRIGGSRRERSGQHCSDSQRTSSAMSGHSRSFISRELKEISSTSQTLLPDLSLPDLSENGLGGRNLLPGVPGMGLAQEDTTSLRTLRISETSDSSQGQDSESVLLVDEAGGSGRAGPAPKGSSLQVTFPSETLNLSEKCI
Procedure: (§1) These experiments were performed by Eurofins Scientific, and the methods below are from this company's information. Membrane protein/membrane amounts may have varied, and the concentrations used were adjusted as necessary. KC289 was tested at 5 μM.
Human recombinant prostanoid EP4 receptors expressed in Chem‐1 cells were used in modified MES buffer pH 6.0. A 3 μg·ml^−1 (see footnote 1) aliquot was incubated with 1 nM [^3H]PGE2 for 120 min at 25°C. Non‐specific binding was estimated in the presence of 10 μM PGE2 . Receptors were filtered and washed, and the filters were then counted to determine [^3H]PGE2 specifically bound.

[2] = system: 30 proteins including ion channels and receptors; assay: Eurofins Hit Profiling Screen PP70: remaining targets; assay type: binding; conditions: 5 μM; targets other than A2A and EP4
Procedure: as §1

[3] = system: HEK‐TREx control (null) cells; assay: Manual whole-cell patch clamp on control cells; assay type: cell-based, human; conditions: 10 μM, HEK-TREx cells without PIEZO1 transfection
Procedure: For manual patch clamp, macroscopic transmembrane ionic currents of mPIEZO1 HEK‐TREx cells (or control HEK‐TREx cells) were recorded using the standard whole‐cell configuration for patch clamp in voltage‐clamp mode. For studies of HEK 293 cells overexpressing PIEZO2 (or control HEK 293 cells), the outside‐out patch configuration was used in voltage‐clamp mode. All recordings were made using an Axopatch 200B amplifier (Axon Instruments, Inc., USA) equipped with Digidata 1550B hosted by a PC running pClamp 10.7 software (Molecular Devices, USA) at room temperature. The cells were maintained during the experiment in an external salt buffer solution (SBS) of the following composition: 135 mM NaCl, 5 mM KCl, 1.5 mM CaCl2, 1.2 mM MgCl2, 8 mM D‐glucose and 10 mM HEPES (titrated to pH 7.4 with NaOH). […] For outside‐out experiments, Na2ATP and Na2GTP were omitted. For whole‐cell experiments, cells were held at 0 mV and current amplitude was monitored by application of ramp voltage protocol from −100 to +100 mV at 10 s intervals. Currents were measured at −100 and +100 mV. Test compounds were applied in the external solution using a bath perfusion system. SBS flow was applied to the cells for 1 min before the addition of compounds. […] Data were analysed and plotted using pClamp 10.7 and Microcal Origin 2018 (Microcal Software, USA).

mouse PIEZO2 (mPIEZO2) = system: mouse PIEZO2 (mPIEZO2); design: method as in Syeda et al., 2015; conditions: mPIEZO2 overexpressed in HEK 293 cells; ref Syeda et al., 2015; cited from earlier work

O=C([O-])c1ccc(-c2nnc(SCc3c(Cl)cccc3Cl)s2)cc1.[K+] [KC289]
Binding to prostanoid EP4 receptors [1]: modest interaction
Binding to the other proteins of the screen [2]: little or no binding

O=C(O)c1ccc(-c2nnc(SCc3c(Cl)cccc3Cl)s2)cc1 [KC159]
Whole-cell current in null cells [3]: not null cells

Clc1cccc(Cl)c1CSc1nnc(-c2cnccn2)s1 [Yoda1, 2‐[5‐[[(2,6‐dichlorophenyl)methyl]thio]‐1,3,4‐thiadiazol‐2‐yl]pyrazine]
Activation of PIEZO2 (mouse PIEZO2 (mPIEZO2)): does not activate; also recorded: not to activate
